The assay has as its system BDF1 mice, B16 melanoma ip, median survival T/C. Put plainly: NCI In Vivo Anticancer Drug Screen. Data for tumor model B16 Melanoma (intraperitoneal) in B6D2F1 (BDF1) mice. The conditions noted are these: endpoint: median survival time, higher = longer survival. Summed up: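 Each result divides a survival or tumor-size measurement in the compound-treated group by the same measurement in the vehicle group.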

[1] abbreviates: dose: 100.0 mg/kg/injection, schedule: Q01DX009 (ip), vehicle: Klucel (hydroxypropylcellulose) (HPC).
The mark [2] stands for this setting: dose: 200.0 mg/kg/injection, schedule: Q01DX009 (ip), vehicle: Klucel (hydroxypropylcellulose) (HPC).
Where [3] appears, read: dose: 400.0 mg/kg/injection, schedule: Q01DX009 (ip), vehicle: Klucel (hydroxypropylcellulose) (HPC).
Where [4] appears, read: dose: 12.5 mg/kg/injection, schedule: Q01DX009 (ip), vehicle: Klucel (hydroxypropylcellulose) (HPC).
[5] abbreviates: dose: 25.0 mg/kg/injection, schedule: Q01DX009 (ip), vehicle: Klucel (hydroxypropylcellulose) (HPC).
The mark [6] stands for this setting: dose: 50.0 mg/kg/injection, schedule: Q01DX009 (ip), vehicle: Klucel (hydroxypropylcellulose) (HPC).
The mark [7] stands for this setting: dose: 25.0 mg/kg/injection, schedule: Q01DX009 (ip), vehicle: saline with Tween-80.
[8] abbreviates: dose: 50.0 mg/kg/injection, schedule: Q01DX009 (ip), vehicle: saline with Tween-80.
Setting [9] is: dose: 100.0 mg/kg/injection, schedule: Q01DX009 (ip), vehicle: saline with Tween-80.
Where [10] appears, read: dose: 200.0 mg/kg/injection, schedule: Q01DX009 (ip), vehicle: saline with Tween-80.
The mark [11] stands for this setting: dose: 400.0 mg/kg/injection, schedule: Q01DX009 (ip), vehicle: saline with Tween-80.
Where [12] appears, read: dose: 12.5 mg/kg/injection, schedule: Q01DX009 (ip), vehicle: saline.
The mark [13] stands for this setting: dose: 50.0 mg/kg/injection, schedule: Q01DX009 (ip), vehicle: saline.
The mark [14] stands for this setting: dose: 100.0 mg/kg/injection, schedule: Q04DX003 (ip), vehicle: Klucel (hydroxypropylcellulose) (HPC).
[15] abbreviates: dose: 200.0 mg/kg/injection, schedule: Q04DX003 (ip), vehicle: Klucel (hydroxypropylcellulose) (HPC).
Setting [16] is: dose: 400.0 mg/kg/injection, schedule: Q04DX003 (ip), vehicle: Klucel (hydroxypropylcellulose) (HPC).

Where “and” joins values, the source holds several entries; their conditions need not be identical. Equal values may be shown once. Toxic doses and inconclusive results are not listed. Numbered stars: 1 amine (or outer) side, 2 acyl side, 3 side chain; on linkers, the order of the positions; unused ones are H or OH. Bridge positions count the residues as written; N and C are the ends. Square brackets hold non-standard residues; d marks the D form. Peptide text beside a SMILES is read from it. I, II: the chains in the order shown. Actinocin(9to1) = Cc1c2oc3c(C)ccc(C(=O)[*:1])c3nc-2c(C(=O)[*:2])c(N)c1=O; NMeV = CN[CH](C(=O)O)C(C)C; Sar = CNCC(=O)O

Our source for the T/C values is PubChem BioAssay AID192 (DTP/NCI, 2004).

For `CCOC(=O)c1ccc(NC(=O)Nc2nncs2)cc1`, the T/C reads like this: (dose: 6.25 mg/kg/injection, schedule: Q01DX009 (ip), vehicle: distilled water + Tween-80) 93 % of control; (dose: 12.5 mg/kg/injection, schedule: Q01DX009 (ip), vehicle: distilled water + Tween-80) 112 % of control; (dose: 25.0 mg/kg/injection, schedule: Q01DX009 (ip), vehicle: distilled water + Tween-80) 95 % of control; (dose: 50.0 mg/kg/injection, schedule: Q01DX009 (ip), vehicle: distilled water + Tween-80) 98 % of control.

Consider `Nc1ccc(Nc2ccc([N+](=O)[O-])cc2[N+](=O)[O-])cc1`, for which the T/C by setting is: (dose: 50.0 mg/kg/injection, schedule: Q04DX003 (ip), vehicle: gum acacia) 104 % of control; (dose: 100.0 mg/kg/injection, schedule: Q04DX003 (ip), vehicle: gum acacia) 97 % of control; (dose: 200.0 mg/kg/injection, schedule: Q04DX003 (ip), vehicle: gum acacia) 95 % of control.

Turning to `CC1CCN(c2ccc([N+](=O)[O-])cc2)CC1`, the T/C runs as follows: under setting [1], 106 % of control; under setting [2], 87 % of control; under setting [3], 96 % of control.

In the case of `Cc1c2oc3c(C)ccc(C(=O)NCCN4CCCCC4)c3nc-2c(C(=O)NCCN2CCCCC2)c(N)c1=O`, the T/C was 97 % of control under setting [4] and 112 % of control under setting [5].

As for `Cc1cccc(NC(=O)Nc2ccccc2Cl)c1C`, the T/C under setting [5] is 101 % of control, the T/C under setting [6] is 101 % of control and the T/C under setting [1] was 101 % of control.

Turning to `CCC(=O)NC1=C(N2CC2)C(=O)C(NC(=O)CC)=C(N2CC2)C1=O`, the T/C is, setting by setting: (dose: 0.5 mg/kg/injection, schedule: Q01DX009 (ip), vehicle: saline) 107 % of control; (dose: 1.0 mg/kg/injection, schedule: Q01DX009 (ip), vehicle: saline) 107 % of control; (dose: 2.0 mg/kg/injection, schedule: Q01DX009 (ip), vehicle: saline) 113 % of control.

As to `CC(=O)Nc1ccc(/C=N/NC(N)=S)cc1`, the T/C is 102 % of control under setting [5]; 108 % of control under setting [7]; 100 % of control under setting [6]; 105 % of control under setting [8]; 102 % of control under setting [1]; 100 % of control under setting [9]. The T/C is 105 % of control under setting [2], 98 % of control under setting [10], 100 % of control under setting [3] and 95 % of control under setting [11].

With `Cc1c2oc3c(C)ccc(C(=O)NC4C(=O)NC(C(C)C)C(=O)N5CCCC5C(=O)N(C)CC(=O)N(C)C(C(C)C)C(=O)OC4C)c3nc-2c(C(=O)NC2C(=O)NC(C(C)C)C(=O)N3CCCC3C(=O)N(C)CC(=O)N(C)C(C(C)C)C(=O)OC2C)c(N)c1=O` (stereo not drawn) (I: TVP[Sar][NMeV] / II: TVP[Sar][NMeV]; ester I:1-I:C, II:1-II:C; linker I:N-II:N via Actinocin(9to1); configuration not given here), the T/C by setting is: (dose: 0.06 mg/kg/injection, schedule: Q01DX009 (ip), vehicle: saline) 165 % of control; (dose: 0.12 mg/kg/injection, schedule: Q01DX009 (ip), vehicle: saline) 177 % of control and 180 % of control.

Take `CCOc1ccccc1NC(=O)Nc1ccccc1Cl`: the T/C by setting is: under setting [9], 103 % of control; under setting [10], 94 % of control; under setting [11], 89 % of control.

For `CCc1cc(C)cc(OC(=O)Nc2cccc(Cl)c2)c1`, the T/C was 90 % of control under setting [9], 92 % of control under setting [10] and 86 % of control under setting [11].

On to `CSCCC(C#N)c1ccccc1` (stereo not drawn), for which the T/C is 88 % of control under setting [8] and 88 % of control under setting [9].

Take `CN(C)CCOCCOC(=O)N1c2ccccc2Sc2ccccc21`: the T/C reads like this: (dose: 6.25 mg/kg/injection, schedule: Q01DX009 (ip), vehicle: saline) 102 % of control; under setting [12], 112 % of control; (dose: 25.0 mg/kg/injection, schedule: Q01DX009 (ip), vehicle: saline) 116 % of control; under setting [13], 109 % of control.

In the case of `COc1cc2c(cc1OC)N(S(=O)(=O)c1ccc(C)cc1)CCCC2=O`, the T/C by setting is: under setting [14], 87 % of control; under setting [15], 100 % of control; under setting [16], 92 % of control.

With `COc1c2c(cc3c1OCO3)CCN(C)C2`, the T/C (dose: 10.0 mg/kg/injection, schedule: Q01DX009 (ip), vehicle: saline) was 95 % of control; the T/C (dose: 20.0 mg/kg/injection, schedule: Q01DX009 (ip), vehicle: saline) was 99 % of control; the T/C (dose: 40.0 mg/kg/injection, schedule: Q01DX009 (ip), vehicle: saline) was 100 % of control; the T/C (dose: 80.0 mg/kg/injection, schedule: Q01DX009 (ip), vehicle: saline) is 91 % of control.

Take `Cc1cccc(C)c1NC(=O)c1ccccc1`: the T/C by setting is: under setting [12], 93 % of control; under setting [5], 89 % of control; under setting [6], 100 % of control; under setting [13], 90 % of control.

With `CCc1ccc(C(=O)CCCCl)cc1`, the T/C runs as follows: under setting [8], 102 % of control; under setting [9], 100 % of control; under setting [10], 109 % of control.

Turning to `CS(=O)(=O)c1cc(C(F)(F)F)cc([N+](=O)[O-])c1Cl`, the T/C is 89 % of control under setting [7], 95 % of control under setting [8] and 95 % of control under setting [9].

`NC(CCCCNC(=O)c1ccccc1)C(=O)O` (stereo not drawn): the T/C by setting is: under setting [8], 100 % of control; under setting [9], 100 % of control; under setting [10], 92 % of control; under setting [11], 95 % of control.

For the compound `O=C(O)/C=C/C(=O)NCc1ccco1`, the T/C runs as follows: under setting [1], 102 % of control; under setting [2], 86 % of control.

Turning to `Cn1cnc([N+](=O)[O-])c1S(=O)(=O)NCN1CCOCC1`, the T/C runs as follows: under setting [4], 98 % of control; under setting [5], 96 % of control; under setting [6], 97 % of control; under setting [1], 94 % of control.

Consider `ClC1=C(Cl)C2(Cl)C(COc3ccc(Cl)cc3)CC1(Cl)C2(Cl)Cl` (stereo not drawn), for which the T/C is 104 % of control (dose: 12.5 mg/kg/injection, schedule: Q01DX009 (ip), vehicle: saline with Tween-80); 88 % of control under setting [7]; 95 % of control under setting [8].

Take `COC(=O)C(CSCc1ccccc1)NC(=O)OCc1ccccc1` (stereo not drawn): under setting [6], the T/C was 87 % of control.

Regarding `CS(=O)(=O)OCCN(CCOS(C)(=O)=O)c1ccc(C=Nc2ccc3oc(=O)ccc3c2)cc1`, the T/C was 120 % of control (dose: 6.25 mg/kg/injection, schedule: Q01DX009 (ip), vehicle: Klucel (hydroxypropylcellulose) (HPC)); 118 % of control under setting [4]; 118 % of control under setting [6].

Take `CC(=O)Nc1nc(=O)n(CC(=O)c2cccs2)cc1F`: the T/C (dose: 6.25 mg/kg/injection, schedule: Q01DX009 (ip), vehicle: carboxymethylcellulose (CMC)) was 100 % of control; the T/C (dose: 12.5 mg/kg/injection, schedule: Q01DX009 (ip), vehicle: carboxymethylcellulose (CMC)) is 99 % of control; the T/C (dose: 25.0 mg/kg/injection, schedule: Q01DX009 (ip), vehicle: carboxymethylcellulose (CMC)) was 94 % of control; the T/C under setting [6] is 96 % of control; the T/C (dose: 50.0 mg/kg/injection, schedule: Q01DX009 (ip), vehicle: carboxymethylcellulose (CMC)) was 102 % of control.

On to `CCC[CH2][Sn]1([CH2]CCC)[O]OC(c2ccc(C)cc2)[O]1` (stereo not drawn), for which the T/C (dose: 0.38 mg/kg/injection, schedule: Q01DX009 (ip), vehicle: saline with Tween-80) was 96 % of control; the T/C (dose: 0.75 mg/kg/injection, schedule: Q01DX009 (ip), vehicle: saline with Tween-80) is 96 % of control; the T/C (dose: 1.5 mg/kg/injection, schedule: Q01DX009 (ip), vehicle: saline with Tween-80) is 101 % of control; the T/C (dose: 3.13 mg/kg/injection, schedule: Q01DX009 (ip), vehicle: saline with Tween-80) is 115 % of control.

In the case of `CCN(C(=O)Nc1ccc(OC)cc1)c1ccccc1C`, the T/C under setting [14] was 102 % of control, the T/C under setting [15] is 102 % of control and the T/C under setting [16] is 102 % of control.
